Test results: patent US6699877B2 (Gruenenthal GmbH, priority 2000, dated 2004)

biological target: T1, glycine binding site of the NMDA receptor channel (Rattus norvegicus, UniProt P35439); assay: Receptor binding, displacement of (3H)-MDL 105.519 on rat cerebral membrane homogenates; settings: 10 μmol/l test substance; 1 nmol/l (3H)-MDL 105.519
T1 construct: from tissue; host or cells: rat brain cortex and hippocampus membrane homogenate
Method: Receptor Binding (Glycine Binding Site of the NMDA Receptor Channel)
Experiments to determine the affinity of the compounds according to the invention of Formula I to the glycine binding site of the NMDA receptor channel were carried out on cerebral membrane homogenates (homogenate of Cortex- and Hippocampus-Areal from the brain of male rats, Wistar strain) (B. M. Baron, B. W. Siegel, B. L. Harrison, R. S. Gross, C. and P. Towers, Journal of Pharmacology and Experimental Therapeutics, Vol. 279, p. 62, 1996).
For this purpose, Cortex and Hippocampus from freshly removed rats' brains were dissected, homogenized in 5 mmol/l TRIS-acetate buffer, 0.32 mol/l sacharose pH 7.4 (10 ml/g fresh weight) with a Potter homogenizer (made by Braun/Melsungen, 10 piston strokes at 500 rpm) while cooling with ice and subsequently centrifuged for 10 minutes at 1,000 g and 4° C. The first supernatant material was collected and the sediment homogenized again with […] TRIS-acetate buffer, 0.32 mol/l safcharose pH 7.4 (5 ml/g original fresh weight) using the Potter homogenizer (10 piston strokes at 500 rpm) while cooling with ice and centrifuged for 10 minutes at 1,000 g and 4° C. The resultant supernatant material was combined with the supernatant material from the first centrifugation and centrifuged at 17,000 g for 20 minutes at 4° C. The supernatant material after this centrifugation was discarded, the membrane sediment taken up with 5 mmol/l TRIS-acetate buffer pH 8.0 (20 ml/g original fresh weight) and homogenized with 10 piston strokes at 500 rpm.
The membrane homogenate was then incubated for 1 hour at 4° C. and centrifuged for 30 minutes at 50,000 g and 4° C. The supernatant material was discarded and the centrifuge tube with the membrane sediment sealed with parafilm and frozen for 24 hours at −20° C. The membrane sediment was thawed on the following day, taken up with ice-cold 5 mmol/l TRIS-acetate buffer, 0.1% saponin (w/v) pH 7.0 (10 ml/g original fresh weight), homogenized with 10 piston strokes at 500 rpm and subsequently centrifuged for 20 minutes at 50,00 g and 4° C. The resultant supernatant material was discarded, the sediment taken up in a small volume with 5 mmol/l TRIS-acetate buffer pH 7.0 (about 2 ml/g original fresh weight) and homogenized again with 10 piston strokes at 500 rpm. After determining the protein content, the membrane homogenate was adjusted to a protein concentration of 10 mg protein/ml using 5 mmol/l TRIS-acetate buffer pH 7.0 and frozen in aliquots for testing.
For the receptor binding test, aliquots were thawed, diluted 1:10 with 5 mmol/l TRIS-acetate buffer pH 7.0, homogenized with 10 piston strokes at 500 rpm using the potter homogenizer (10 piston strokes at 500 rpm) while cooling with ice and centrifuged for 60 minutes at 55,000 g at 4° C. The supernatant material was decanted, the membrane sediment adjusted to a protein concentration of 1 mg/ml with ice-cold 50 mmol/l TRIS-acetate buffer pH 7.0, homogenized again with 10 piston strokes at 500 rpm and kept in suspension in the ice bath while stirring on a magnetic stirrer. 100 μl of this membrane homogenate per 1 ml of feedstock was used in each case in the receptor binding test (0.1 mg protein/ml in the final batch).
In the binding test, 50 mmol/l TRIS-acetate buffer pH 7.0 was used as buffer and 1 nmol/l (^3H)-MDL 105.519 (B. M. Baron et al 1996) was used as radioactive ligand. The proportion of unspecific binding was determined in the presence of 1 mmol/l glycine.
In further batches, the compounds according to the invention were added in concentration series and the displacement of the radioactive ligand from its specific binding to the glycine binding site of the NMDA receptor channel determined. The respective triple batches were incubated for 120 minutes at 4° C. and then harvested to determine the radioactive ligands bound to the membrane homogenate by filtration through glass fiber filter mats (GF/B). […]

For `O=C(O)C1CC(c2ccc(Cl)cc2)c2c(Cl)cc(Cl)cc2N1` (centres unmarked) [Example 99, 5,7-dichloro-4-(4-chlorophenyl)-1,2,3,4-tetrahydroquinoline-2-carboxylic acid], the “Displacement (%, 10 μmol/l) of radioactive ligand from specific binding” value was 43%.

same assay, conditions: 10 μmol/l test substance; 1 nmol/l (3H)-MDL 105.519; read-out: Displacement (%, 10 μmol/l) of radioactive ligand from specific binding

`CCOC(=O)C1CC(c2cccc(Cl)c2)c2c(Cl)cc(Cl)cc2N1` (centres unmarked) [Example 34, 5,7-dichloro-4-(3-chlorophenyl)-1,2,3,4-tetrahydroquinoline-2-carboxylic Acid Ethyl Ester] and `CCOC(=O)C1CC(c2ccc(Cl)cc2)c2c(Cl)cc(Cl)cc2N1` (centres unmarked) [Example 35, 5,7-dichloro-4-(4-chlorophenyl)-1,2,3,4-tetrahydroquinoline-2-carboxylic Acid Ethyl Ester] are the same in inhibition at 10 µM: 32% for the first, 32% for the second.

First: CCOC(=O)C1CC(c2ccccc2F)c2c(Cl)cc(Cl)cc2N1 (centres unmarked) [Example 26, 5,7-dichloro-4-(2-fluorophenyl)-1,2,3,4-tetrahydroquinoline-2-carboxylic Acid Ethyl Ester]
Second: CCOC(=O)C1CC(c2ccccc2Cl)c2c(Cl)cc(Cl)cc2N1 (centres unmarked) [Example 33, 5,7-dichloro-4-(2-chlorophenyl)-1,2,3,4-tetrahydroquinoline-2-carboxylic Acid Ethyl Ester]
The inhibition at 10 µM of the first is higher: 43% for the first, 40% for the second.

Compared with `O=C(O)C1CC(c2ccc(Cl)cc2)c2cc(Cl)c(C(F)(F)F)cc2N1` (centres unmarked) [Example 87, 6-chloro-4-(4-chlorophenyl)-7-trifluoromethyl-1,2,3,4-tetrahydroquinoline-2-carboxylic acid], `O=C(O)C1CC(c2ccc(Br)cc2)c2c(Cl)cc(Cl)cc2N1` (centres unmarked) [Example 40, 4-(4-bromophenyl)-5,7-dichloro-1 ,2,3,4-tetrahydroquinoline-2-carboxylic Acid] is higher in inhibition at 10 µM: 37% for the first, 70% for the second.

First: O=C(O)C1CC(c2cccc(F)c2)c2c(Cl)cc(Cl)cc2N1 (centres unmarked) [Example 29, 5,7-dichloro-4-(3-fluorophenyl)-1,2,3,4-tetrahydroquinoline-2-carboxylic Acid]
Second: Cc1cccc(C2CC(C(=O)O)Nc3cc(Cl)cc(Cl)c32)c1 (centres unmarked) [Example 18, 5,7-dichloro-4-m-tolyl-1,2,3,4-tetrahydroquinoline-2-carboxylic Acid]
The inhibition at 10 µM of the first is higher: 78% for the first, 51% for the second.

`Cc1cc(C)cc(C2CC(C(=O)O)Nc3cc(Cl)cc(Cl)c32)c1` (centres unmarked) [Example 102, 5,7-dichloro-4-(3,5-dimethyl-phenyl)-1,2,3,4-tetrahydroquinoline-2-carboxylic acid] and `Cc1ccc(C2CC(C(=O)O)Nc3cc(Cl)cc(Cl)c32)cc1` (centres unmarked) [Example 20, 5,7-dichloro-4-p-tolyl-1,2,3,4-tetrahydroquinoline-2-Carboxylic Acid] are the same in inhibition at 10 µM: 61% for the first, 61% for the second.

Going from `Cc1ccc(C2CC(C(=O)O)Nc3c2ccc(Cl)c3Cl)c(C)c1` (centres unmarked) [Example 86, 7,8-dichloro-4-(2,4-dimethylphenyl)-1,2,3,4-tetrahydroquinoline-2-carboxylic acid] to `Cc1cccc(C2CC(C(=O)O)Nc3c(F)cc(Cl)cc32)c1` (centres unmarked) [Example 83, 6-chloro-8-fluoro-4-m-tolyl-1,2,3,4-tetrahydroquinoline-2-carboxylic acid], the inhibition at 10 µM rises from 33% to 93%.

First: O=C(O)C1Nc2cc(Cl)cc(Cl)c2C2c3ccccc3CCC12 (centres unmarked) [Example 100, 1,3-dichloro-5,6,6a,7,8,12b-hexahydrobenzo[k]phenanthridine-6-carboxylic acid]
Second: O=C(O)C1CC(c2ccccc2F)c2c(Cl)cc(Cl)cc2N1 (centres unmarked) [Example 27, 5,7-dichloro-4-(2-fluorophenyl)-1,2,3,4-tetrahydroquinoline-2-carboxylic Acid]
The inhibition at 10 µM of the first is higher: 80% for the first, 75% for the second.

Compared with `CCOC(=O)C1Nc2c(Cl)cc(Br)cc2C(c2ccccc2)C1C` (centres unmarked) [Example 90, 6-bromo-8-chloro-3-methyl-4-phenyl-1,2,3,4-tetrahydroquinoline-2-carboxylic acid ethyl ester], `CCOC(=O)C1Nc2cc(Cl)cc(Cl)c2C(c2ccccc2)C1C` (centres unmarked) [Example 42, 5,7-dichloro-3-methyl-4-phenyl-1,2,3,4-tetrahydroquinoline-2-carboxylic Acid Ethyl Ester] is lower in inhibition at 10 µM: 46% for the first, 21% for the second.

First: CCOC(=O)C1CC(c2ccc(F)cc2)c2cc(Cl)ccc2N1 (centres unmarked) [Example 51, 6-chloro-4-(4-fluorophenyl)-1,2,3,4-tetrahydroquinoline-2-carboxylic Acid Ethyl Ester]
Second: O=C(O)C1CC(c2ccc(Br)cc2)c2cc(Cl)cc(F)c2N1 (centres unmarked) [Example 85, 4-(4-bromophenyl)-6-chloro-8-fluoro-1,2,3,4-tetrahydroquinoline-2-carboxylic acid]
The inhibition at 10 µM of the first is lower: 21% for the first, 61% for the second.

`CCOC(=O)C1CC(c2cccc(C(F)(F)F)c2)c2c(Cl)cc(Cl)cc2N1` (centres unmarked) [Example 41, 5,7-dichloro-4-(3-trifluoromethylphenyl)-1,2,3,4-tetrahydroquinoline-2-carboxylic Acid Ethyl Ester] showed an inhibition at 10 µM of 38%.

test system: formalin-induced nociception; assay: Formalin test, rat (second/late phase); type: in vivo; settings: i.p., 21.5 mg/kg, late phase
Method: Experiments to determine the antinociceptive activity of the compounds according to the invention of Formula I were carried out in the formalin test on male rats (Sprague-Dawley, 150-170 g).
In the formalin test, the first (early) phase (0-15 min after formalin injection) was distinguished from the second (late) phase (15-60 min after formalin injection) (D. Dubuisson, S. G. Dennis, Pain 4, 161-174 (1977)). The early phase, as a direct reaction to the formalin injection, represents a model for acute pain while the late phase is considered as a model for persistent (chronic) pain (T. J. Coderre, J. Katz, A. L. Vaccarino, R. Melzack, Pain, Vol. 52, p. 259,1993).
The compounds according to the invention were investigated in the second phase of the formalin test to obtain information about the effects of substances in chronic/inflammatory pain.
A nociceptive reaction was induced in freely moving experimental animals by a single subcutaneous formalin injection (50 μl, 5%) into the dorsal side of the back right paw, the nociceptive reaction being portrayed by the following behavioral parameters: lifting and holding the respective paw (Score 1), shaking and twitching (Score 2), licking and biting (Score 3). The different behavioral patterns triggered by the formalin injection were recorded continuously by observing the animals in the late phase of the formalin test and were weighted differently in an evaluation. Normal behavior in which the animal loads all four paws uniformly was recorded as score 0. The moment of administration prior to the formalin injection was selected according to the method of administration of the compounds according to the invention (intraperitoneal: 15 min, intravenous: 5 min). The described behavioral patterns (Score 1 to 3) in the animals are reduced and possibly even eliminated after injection of substances which have an antinociceptive effect in the formalin test. A comparisom was made with control animals which had received vehicles (solvents) prior to formalin administration. The nociceptive behavior was calculated as a so-called pain rate (PR). The various behavioral parameters received a different weighting (Factor 0, 1, 2, 3). Calculation took place at partial intervals of 3 min according to the following formula:
Substance and vehicle groups include n=10 animals in each case. The effect of the substance was determined as a percentage change versus control on the basis of the PR calculations. The ED50 calculations were made by regression analysis.

Compared with `CCOC(=O)C1CC(c2cccc(Cl)c2)c2c(Cl)cc(Cl)cc2N1` (centres unmarked) [Example 34, 5,7-dichloro-4-(3-chlorophenyl)-1,2,3,4-tetrahydroquinoline-2-carboxylic Acid Ethyl Ester], `CCOC(=O)C1CC(c2ccc(Cl)cc2)c2c(Cl)cc(Cl)cc2N1` (centres unmarked) [Example 35, 5,7-dichloro-4-(4-chlorophenyl)-1,2,3,4-tetrahydroquinoline-2-carboxylic Acid Ethyl Ester] is lower in “% inhibition of formalin-induced nociception” value (shortened to “% inhibition”): 53.1% for the first, 21.9% for the second.

Going from `CCOC(=O)C1CC(c2ccccc2F)c2c(Cl)cc(Cl)cc2N1` (centres unmarked) [Example 26, 5,7-dichloro-4-(2-fluorophenyl)-1,2,3,4-tetrahydroquinoline-2-carboxylic Acid Ethyl Ester] to `CCOC(=O)C1CC(c2ccccc2Cl)c2c(Cl)cc(Cl)cc2N1` (centres unmarked) [Example 33, 5,7-dichloro-4-(2-chlorophenyl)-1,2,3,4-tetrahydroquinoline-2-carboxylic Acid Ethyl Ester], the “% inhibition” value falls from 82.6% to 69.0%.

In the case of `CCOC(=O)C1Nc2cc(Cl)cc(Cl)c2C2C=CCC12` (centres unmarked) [Example 1, 7,9-dichloro-3a,4,5,9b-tetrahydro-3H-cyclopenta[c]quinoline-4-carboxylic Acid Ethyl Ester], the “% inhibition” value is reported as 88.3%.

same assay, conditions: i.v., 21.5 mg/kg, late phase

For `O=C(O)C1Nc2ccc(Cl)cc2C2C=CCC12` (centres unmarked) [Example 4, 8-chloro-3a-4,5,9b-tetrahydro-3H-cyclo-penta[c]quinoline-4-carboxylic Acid], the “% inhibition” value was 67.1%.
